Patent US10799593B2, “Nanodiamond particle complexes” (priority 2008, dated 2020)

Columns and labels:
[1] = Particle size and zeta potential measurement (DLS) of ND-drug complexes; type: physicochemical; conditions: for average particle size upon complexing with NDs: ND 1 mg/mL, therapeutic 0.1 mg/mL
Experimental: The particle size and zeta potential of the complexes were measured using a Zetasizer Nano (Malvern Instruments). […] ND:Purvalanol A complexes were prepared in a similar manner in 5% aqueous DMSO as described previously. […] All size measurements were performed at 25° C. at a 90° scattering angle. Mean hydrodynamic diameters were obtained via cumulative analysis of 11 measurements.

[2] = ND pulldown with UV-Vis spectrophotometric analysis of drug adsorption; type: physicochemical; conditions: 14,000 rpm, 2 hours, 25° C.
Experimental: All samples underwent centrifugation at 14,000 rpm for 2 hours at 25° C., where the supernatant was then subsequently collected for spectroscopic scans from 200 nm to 600 nm. Drug loading concentrations were determined via ND-complex pull-down experiments which comprised of an initial absorbance reading, then a 2 hour centrifuge of all samples at 25° C. and 14000 RPM followed by a final absorbance reading. The concentration of loaded drug was then calculated by measuring the difference between the initial and final readings.

[3] = Desorption of drug from Nanodiamond conjugates in water and PBS; type: physicochemical
[4] = Nanodiamond-drug binding assays (UV-vis spectrophotometry, centrifugation); type: physicochemical; conditions: UV-vis spectrophotometry and centrifugation (14000 rpm) pelleting
Experimental: The binding efficiency of therapeutics such as daunorubicin, idarubicin, and others were analyzed using UV-vis spectrophotometry, as well as centrifugation assays (SEE FIGS. 18-39). In all cases, nanodiamond-drug interactions were capable of comprehensively pelleting the therapeutics (SEE FIGS. 19, 22, 25, 28, 30, 33, 36, and 39), indicating potent adsorption which was further confirmed via spectrophotometric analysis […], […], 1-32, 34-35, and 37-38).

[5] = Dispersion in water / turbidity of drug with and without NDs; type: physicochemical; conditions: DMSO mixtures diluted 20 fold in water to 5% DMSO; 0.1 mg/ml Purvalanol A, 1 mg/ml ND
[6] = system: HepG2 tissue culture cells; assay: DNA fragmentation (laddering) assay; type: cell-based; conditions: 24 hours, 10:1 ND:Purvalanol A in 5% DMSO in water, 1:10 dilution
Experimental: A 1:10 dilution of 5% DMSO in water, NDs in 5% DMSO in water (1 mg/ml), ND:Purvalanol A in 5% DMSO in water (10:1 ratio—1 mg/ml ND, 0.1 mg/ml Purvalanol A), and Purvalanol A in 5% DMSO in water (0.1 mg/ml) were added to HepG2 tissue culture cells and grown for 24 hours. The cultured cells were lysed in 500 μL lysis buffer (10 mM Tris-HCl, pH 8.0, 10 mM EDTA, 1% Triton X-100). 30-minute incubations at 37° C. followed separate RNase A and proteinase K treatment. Following phenol chloroform extraction, nuclear DNA was isolated in isopropyl alcohol and stored at −80° C. overnight. The samples were then resuspended in DEPC water following a 70% ethanol wash and electrophoresed using a 0.8% agarose gel, and finally stained with ethidium bromide.

[7] = reference [38]; cited from earlier work
[8] = system: RAW 264.7 macrophage cells; assay: MTT cell viability assay after serum starvation; type: cell-based, murine; conditions: serum-starved 8 hours, 24-hour recovery, 0.1 μM versus 1 μM insulin
Experimental: RAW 264.7 murine macrophages were plated in 96-well plates, serum-starved for 8 hours and then incubated for 24 hours. Post-starvation media was composed of the following conditions: DMEM, 0.1 μM insulin, 1 μM insulin, DMEM 10% FBS, approximately 0.1 μM insulin released from ND-insulin complex by NaOH at pH 10.5 (insulin present in media), resultant solution from centrifuged ND-insulin in water, ND-insulin treated with NaOH at pH 10.5 (1 μM total insulin, ND-insulin complex present in media) and ND-insulin (1 μM total insulin, ND-insulin complex present in media). Insulin released from NDs was prepared by centrifuging samples of NDs with adsorbed insulin in NaOH and extracting the resultant solution, which could be reconstituted with media to 0.1 μM insulin. In a similar fashion, water was utilized as a neutral solution for relevant desorption analysis. Methylthiazolyldiphenyl-tetrazolium bromide (MTT) solution (Sigma-Aldrich) was added corresponding to 10% of total volume, and then incubated for 3 hours. After formazan crystal formation, the media was removed and MTT solvent, 0.1N HCl in anhydrous isopropanol (Sigma-Aldrich), was added to samples to solubilize the MTT dye. Sample absorbance measurements occurred at 570 nm, accounting for background at a wavelength of 690 nm.

[9] = 5-day insulin desorption test; type: physicochemical; conditions: for cumulative insulin released from NDs by day 1: of total adsorbed insulin, 4:1 ratio
Experimental: Additionally, a 5-day desorption test was conducted to determine cumulative insulin release. Samples were prepared by combining NDs and insulin (4:1 ratio), centrifuging at 14,000 rpm for 2 hours and extracting the remaining solution to remove any non-adsorbed insulin. Subsequently, a 1 mM NaOH solution adjusted to pH 10.5 was added to the samples, mixed thoroughly and centrifuged after a 24-hour period to determine protein concentration utilizing a BCA assay. In addition to alkaline-mediated release, water was added to a separate set of samples. The samples were replenished with NaOH or water after each measurement for the respective conditions, and the process was repeated every 24 hours over the course of 5 days.

[10] = system: Granulocyte colony-stimulating factor (Csf3/G-csf); assay: Quantitative RT-PCR gene expression, Csf3/G-csf; type: cell-based, murine; conditions: 3T3-L1 adipocytes; (2) 0.1 μM insulin
Experimental: (§1) RT-PCR procedures were conducted as described previously. 3T3-L1 adipocytes were plated in 6-well plates, serum-starved for 4 hours and then recovered in media solutions of DMEM, insulin, approximately 0.1 μM insulin released from ND-insulin by NaOH (pH 10.5), resultant solution from centrifuged ND-insulin in pH-neutral water, ND-insulin treated with NaOH (1 μM total insulin) and NDs with bound insulin (ND-insulin, 1 μM total insulin). Preparations of media solutions containing DMEM, insulin, NDs and NaOH were conducted in a similar fashion to those implemented for the MTT assay. RNA isolation was completed by lysing cells with TRIzol reagent (Invitrogen Corporation, Carlsbad, Calif.) and added to chloroform to obtain genetic material by centrifugation. cDNA synthesis was performed using the iScript Select cDNA Synthesis Kit (Bio-Rad, Hercules, Calif.). PCR expression of the Ins1 and Csf3/G-csf genes (Integrated DNA Technologies, Coralville, Iowa) were quantified by the MyiQ Single Color Real-Time PCR machine (Bio-Rad, Hercules, Calif.) using SYBER Green detection reagents (Quanta Biosciences, Gaithersburg, Md.). The Rpl32 gene (Integrated DNA Technologies) served as the housekeeping gene for normalization of cDNA among samples.

[11] = Insulin desorption from NDs in NaOH of varying pH; type: physicochemical; conditions: 4:1 ratio; NaOH at pH 10.5
Experimental: Determination of insulin adsorption to NDs was performed by protein detection assays before and after centrifugation. Insulin was added to a ND suspension, centrifuged at 14,000 rpm for 2 hours and the resultant solution extracted and quantified. Detection of desorbed insulin was performed by adding alkaline solutions of 1 mM NaOH, adjusted for varying pH, to samples of ND-insulin in suspension. Binding ratios were determined similar to the adsorption test.
The desorption assays were conducted in a similar manner as the adsorption assays. Aqueous solutions of FITC-labeled and standard insulin were added to ND suspensions at 5:1 and 4:1 ratios, respectively. Initial and centrifuged samples were measured, and the amount of insulin desorbed was calculated. […] Separate tests at pH 10.7 show the ND-insulin complex achieving 53.3±1.2% desorption.

[12] = system: Insulin 1 (Ins1); assay: Quantitative RT-PCR gene expression, Ins1; type: cell-based, murine; conditions: 3T3-L1 adipocytes; serum-starved 4 hours, 2-hour recovery; (2) 0.1 μM insulin
Experimental: as §1

[13] = DLS analysis of NDs, insulin and ND-insulin (size, PDI, zeta potential); type: physicochemical; conditions: for Average Size (μm): DLS hydrodynamic cluster size
Experimental: Hydrodynamic size and zeta potential of samples was measured with a Zetasizer Nano (Malvern Instruments, Worcestershire, United Kingdom). NDs and insulin were prepared as previously described. Briefly, the particles were suspended in buffer with corresponding pH at a concentration of 50 mg/mL. The size measurements were performed at 25° C. and at a 173° scattering angle. The mean hydrodynamic diameter was determined by cumulative analysis. The zeta potential determinations were based on electrophoretic mobility of the microparticles in the aqueous medium, which was performed using folded capillary cells in automatic mode.

Question: For 4-hydroxytamoxifen [4-OHT], which “average particle size upon complexing with NDs” value [1] is on record?
Answer: 278.9 nm

Question: And the “mean diameter (particle size)” value ([1]; in 5% DMSO, not complexed)?
Answer: 485.1 nm

Question: What about the “UV-Vis absorbance of supernatant before and after centrifugation (pulldown)” value [2] of the same molecule?
Answer: insignificant change in the UV-Vis absorbance

Question: Which “release profile of drug desorbed from Nanodiamond conjugates” value (from here on “release profile of drug desorbed”) [3] does the source give for `COc1cccc2c1C(=O)c1c(O)c3c(c(O)c1C2=O)C[C@@](O)(C(C)=O)C[C@@H]3O[C@H]1C[C@H](N)[C@H](O)[C@H](C)O1` [DAUN, daunorubicin] here?
Answer: drug elution is sustained over several hours

Question: And the “binding / adsorption between ND surface and therapeutic” value [4]?
Answer: exceptional binding

Question: Which “release profile of drug desorbed” value [3] does the source give for `COc1cccc2c1C(=O)c1c(O)c3c(c(O)c1C2=O)C[C@@](O)(C(=O)CO)C[C@@H]3O[C@H]1C[C@H](N)[C@@H](O)[C@H](C)O1` [EPI, epirubicin] here?
Answer: drug elution is sustained over several hours

Question: What about the “binding / adsorption between ND surface and therapeutic” value [4] of the same molecule?
Answer: exceptional binding

Question: Which “release profile of drug desorbed” value [3] does the source give for `CC(=O)[C@]1(O)Cc2c(O)c3c(c(O)c2[C@@H](O[C@H]2C[C@H](N)[C@H](O)[C@H](C)O2)C1)C(=O)c1ccccc1C3=O` [IDA, idarubicin] here?
Answer: drug elution is sustained over several hours

Question: What about the “binding / adsorption between ND surface and therapeutic” value [4] of the same molecule?
Answer: exceptional binding

Question: For `CC(C)[C@H](CO)Nc1nc(Nc2cccc(Cl)c2)c2ncn(C(C)C)c2n1` [Purvalanol A], which “average particle size upon complexing with NDs” value [1] is on record?
Answer: 556 nm

Question: What about the “turbidity after dilution in water” value [5] of the same molecule?
Answer: precipitated out of solution, producing a turbid liquid

Question: What about the DNA fragmentation [6] of the same molecule?
Answer: Fragmentation was evident

Question: Which results are given for insulin: bovine insulin (Sigma-Aldrich)?
Answer: isoelectric point [7]: approximately 5.6; relative viability [8]: increased viability at higher insulin concentrations; amount of insulin released with NaOH relative to water ([9]; 5 days): more than 20 times; total insulin eluted from NDs by day 5 ([9]; NaOH (pH 10.5)): 45.8±3.8 wt %; cumulative insulin released from NDs by day 1 ([9]; NaOH (pH 10.5)): 32.7±1.9 wt %; total insulin eluted from NDs by day 5 ([9]; water): 2.2±1.2 wt %; cumulative insulin released from NDs by day 1 ([9]; water): 0.2±0.1 wt %; relative expression of Csf3/G-csf [10]: comparably higher than that of Ins1; desorption (release) of standard insulin from NDs [11]: 31.3±1.6%; relative expression of Ins1 [12]: lowest expression of Ins1; zeta potential at pH 10.5 compared with pH 7 [13]: substantially more negative; zeta potential ([13]; at both pH 7 and 10.5): negative values; PDI ([13]; pH 7): 0.97 ± 0.046; Average Size (μm) ([13]; pH 7): 1.59 ± 0.038 μm; PDI ([13]; pH 10.5): 0.99 ± 0.011; Average Size (μm) ([13]; pH 10.5): 2.28 ± 0.66 μm
